Read-outs that look alike come from different tables or passages of the source. Ends that are not written are not given here.
Assays:
MDR-EAEC isolates = system: MDR-EAEC isolates
Experimental: Initially, characterization of Lfcin (17–30) was performed by determining its minimum inhibitory concentration (MIC), minimum bactericidal concentration (MBC), in vitro stability assays (high-end temperatures, the physiological concentration of cationic salts and proteases), and in vitro safety assays (sheep erythrocyte hemolysis and secondary cell line cytotoxicity) (Supplementary Files S1–S3). The membrane permeabilization effect of Lfcin (17–30) was assessed by flow cytometry, whereas outer and inner membrane permeability of MDR-EAEC strains treated with 1 × and 2 × MIC levels of Lfcin (17–30) was carried out based on the nitrocefin activity as well as the release of cytoplasmic β-galactosidase activity, respectively (Supplementary File S4). Further, Lfcin (17–30) was evaluated for its antibacterial activity against beneficial lactobacilli (L. acidophilus MTCC 10307 and L. rhamnosus MTCC 1408) (Supplementary File S5).
To explore the utility of Lfcin (17-30) as a therapeutic molecule, in vitro stability was evaluated by exposing it to high-end temperatures, proteases as well as the physiological concentration of salts. In brief, the effect of temperature was investigated by incubating Lfcin (17-30) at 70 °C and 90 °C for 5, 15, and 30 min followed by measuring the MIC value. The effect of proteases (trypsin and proteinase-K) on the antimicrobial activity of Lfcin (17-30) [Protease: AMP- 1:100 (w/w)] was investigated by incubating with the respective protease at 37 °C for 30 sec, 2, 5, 15 and 30 min, followed by inactivating the enzyme at 90 °C for 10 min and measuring the MIC value. The stability of Lfcin (17-30) in the presence of high salt concentrations (150 mM and 2 mM MgCl2) was estimated in regular MH broth. Appropriate controls were included in each experiment.

[1] = system: preformed (48 h) MDR-EAEC biofilm; conditions: preformed (48 h) biofilm of MDR-EAEC strains
Experimental: The MBEC of Lfcin (17–30) was determined against the preformed (48 h) MDR-EAEC biofilm ([Ceri et al., 1999]). MBEC value is the lowest concentration of Lfcin (17–30) that prevented the MDR-EAEC re-growth. This MBEC value of Lfcin (17–30) was further used to study the eradication of biofilm formed by MDR-EAEC strains.

[2] = MgCl2 (2 mM), regular MH broth, MDR 1
[3] = MgCl2 (2 mM), regular MH broth, MDR 2
[4] = MgCl2 (2 mM), regular MH broth, MDR 3
[5] = NaCl (150 mM), regular MH broth, MDR 1
[6] = NaCl (150 mM), regular MH broth, MDR 2
[7] = NaCl (150 mM), regular MH broth, MDR 3
[8] = peptide incubated at 70°C for 5 min, MDR 1
[9] = peptide incubated at 70°C for 5 min, MDR 2
[10] = peptide incubated at 70°C for 5 min, MDR 3
[11] = peptide incubated at 70°C for 15 min, MDR 1
[12] = peptide incubated at 70°C for 15 min, MDR 2
[13] = peptide incubated at 70°C for 15 min, MDR 3
[14] = peptide incubated at 70°C for 30 min, MDR 1
[15] = peptide incubated at 70°C for 30 min, MDR 2
[16] = peptide incubated at 70°C for 30 min, MDR 3
[17] = peptide incubated at 90°C for 5 min, MDR 1
[18] = peptide incubated at 90°C for 5 min, MDR 2
[19] = peptide incubated at 90°C for 5 min, MDR 3
[20] = peptide incubated at 90°C for 15 min, MDR 1
[21] = peptide incubated at 90°C for 15 min, MDR 2
[22] = peptide incubated at 90°C for 15 min, MDR 3
[23] = peptide incubated at 90°C for 30 min, MDR 1
[24] = peptide incubated at 90°C for 30 min, MDR 2
[25] = peptide incubated at 90°C for 30 min, MDR 3
[26] = proteinase-K 1:100 (w/w), 37°C, 2 min, MDR 1
[27] = proteinase-K 1:100 (w/w), 37°C, 2 min, MDR 2
[28] = proteinase-K 1:100 (w/w), 37°C, 2 min, MDR 3
[29] = proteinase-K 1:100 (w/w), 37°C, 5 min, MDR 1
[30] = proteinase-K 1:100 (w/w), 37°C, 5 min, MDR 2
[31] = proteinase-K 1:100 (w/w), 37°C, 5 min, MDR 3
[32] = proteinase-K 1:100 (w/w), 37°C, 15 min, MDR 1
[33] = proteinase-K 1:100 (w/w), 37°C, 15 min, MDR 2
[34] = proteinase-K 1:100 (w/w), 37°C, 15 min, MDR 3
[35] = proteinase-K 1:100 (w/w), 37°C, 30 min, MDR 1
[36] = proteinase-K 1:100 (w/w), 37°C, 30 min, MDR 2
[37] = proteinase-K 1:100 (w/w), 37°C, 30 min, MDR 3
[38] = trypsin 1:100 (w/w), 37°C, 2 min, MDR 1
[39] = trypsin 1:100 (w/w), 37°C, 2 min, MDR 2
[40] = trypsin 1:100 (w/w), 37°C, 2 min, MDR 3
[41] = trypsin 1:100 (w/w), 37°C, 5 min, MDR 1
[42] = trypsin 1:100 (w/w), 37°C, 5 min, MDR 2
[43] = trypsin 1:100 (w/w), 37°C, 5 min, MDR 3
[44] = trypsin 1:100 (w/w), 37°C, 15 min, MDR 1
[45] = trypsin 1:100 (w/w), 37°C, 15 min, MDR 2
[46] = trypsin 1:100 (w/w), 37°C, 15 min, MDR 3
[47] = trypsin 1:100 (w/w), 37°C, 30 min, MDR 1
[48] = trypsin 1:100 (w/w), 37°C, 30 min, MDR 2
[49] = trypsin 1:100 (w/w), 37°C, 30 min, MDR 3

FKCRRWQWRMKKLG [Lfcin (17–30)]
MBC (MDR-EAEC isolates; [2]): 32.0 µg/mL
MIC (MDR-EAEC isolates; [2]): 32.0 µg/mL
MBC (MDR-EAEC isolates; [3]): 32.0 µg/mL
MIC (MDR-EAEC isolates; [3]): 32.0 µg/mL
MBC (MDR-EAEC isolates; [4]): 32.0 µg/mL
MIC (MDR-EAEC isolates; [4]): 32.0 µg/mL
MBC (MDR-EAEC isolates; [5]): 32.0 µg/mL
MIC (MDR-EAEC isolates; [5]): 32.0 µg/mL
MBC (MDR-EAEC isolates; [6]): 32.0 µg/mL
MIC (MDR-EAEC isolates; [6]): 32.0 µg/mL
MBC (MDR-EAEC isolates; [7]): 32.0 µg/mL
MIC (MDR-EAEC isolates; [7]): 32.0 µg/mL
MBC (MDR-EAEC isolates; [8]): 32.0 µg/mL
MIC (MDR-EAEC isolates; [8]): 32.0 µg/mL
MBC (MDR-EAEC isolates; [9]): 32.0 µg/mL
MIC (MDR-EAEC isolates; [9]): 32.0 µg/mL
MBC (MDR-EAEC isolates; [10]): 32.0 µg/mL
MIC (MDR-EAEC isolates; [10]): 32.0 µg/mL
MBC (MDR-EAEC isolates; [11]): 32.0 µg/mL
MIC (MDR-EAEC isolates; [11]): 32.0 µg/mL
MBC (MDR-EAEC isolates; [12]): 32.0 µg/mL
MIC (MDR-EAEC isolates; [12]): 32.0 µg/mL
MBC (MDR-EAEC isolates; [13]): 32.0 µg/mL
MIC (MDR-EAEC isolates; [13]): 32.0 µg/mL
MBC (MDR-EAEC isolates; [14]): 32.0 µg/mL
MIC (MDR-EAEC isolates; [14]): 32.0 µg/mL
MBC (MDR-EAEC isolates; [15]): 32.0 µg/mL
MIC (MDR-EAEC isolates; [15]): 32.0 µg/mL
MBC (MDR-EAEC isolates; [16]): 32.0 µg/mL
MIC (MDR-EAEC isolates; [16]): 32.0 µg/mL
MBC (MDR-EAEC isolates; [17]): 32.0 µg/mL
MIC (MDR-EAEC isolates; [17]): 32.0 µg/mL
MBC (MDR-EAEC isolates; [18]): 32.0 µg/mL
MIC (MDR-EAEC isolates; [18]): 32.0 µg/mL
MBC (MDR-EAEC isolates; [19]): 32.0 µg/mL
MIC (MDR-EAEC isolates; [19]): 32.0 µg/mL
MBC (MDR-EAEC isolates; [20]): 32.0 µg/mL
MIC (MDR-EAEC isolates; [20]): 32.0 µg/mL
MBC (MDR-EAEC isolates; [21]): 32.0 µg/mL
MIC (MDR-EAEC isolates; [21]): 32.0 µg/mL
MBC (MDR-EAEC isolates; [22]): 32.0 µg/mL
MIC (MDR-EAEC isolates; [22]): 32.0 µg/mL
MBC (MDR-EAEC isolates; [23]): 32.0 µg/mL
MIC (MDR-EAEC isolates; [23]): 32.0 µg/mL
MBC (MDR-EAEC isolates; [24]): 32.0 µg/mL
MIC (MDR-EAEC isolates; [24]): 32.0 µg/mL
MBC (MDR-EAEC isolates; [25]): 32.0 µg/mL
MIC (MDR-EAEC isolates; [25]): 32.0 µg/mL
MBC (MDR-EAEC isolates; proteinase-K 1:100 (w/w), 37°C, 0.5 min, MDR 1): 16.0 µg/mL
MBC (MDR-EAEC isolates; proteinase-K 1:100 (w/w), 37°C, 0.5 min, MDR 2): 32.0 µg/mL
MBC (MDR-EAEC isolates; proteinase-K 1:100 (w/w), 37°C, 0.5 min, MDR 3): 4.0 µg/mL
MBC (MDR-EAEC isolates; [26]): 16.0 µg/mL
MIC (MDR-EAEC isolates; [26]): 8.0 µg/mL
MBC (MDR-EAEC isolates; [27]): 32.0 µg/mL
MIC (MDR-EAEC isolates; [27]): 8.0 µg/mL
MBC (MDR-EAEC isolates; [28]): 4.0 µg/mL
MIC (MDR-EAEC isolates; [28]): 4.0 µg/mL
MBC (MDR-EAEC isolates; [29]): 16.0 µg/mL
MIC (MDR-EAEC isolates; [29]): 8.0 µg/mL
MBC (MDR-EAEC isolates; [30]): 32.0 µg/mL
MIC (MDR-EAEC isolates; [30]): 8.0 µg/mL
MBC (MDR-EAEC isolates; [31]): 4.0 µg/mL
MIC (MDR-EAEC isolates; [31]): 4.0 µg/mL
MBC (MDR-EAEC isolates; [32]): 16.0 µg/mL
MIC (MDR-EAEC isolates; [32]): 8.0 µg/mL
MBC (MDR-EAEC isolates; [33]): 32.0 µg/mL
MIC (MDR-EAEC isolates; [33]): 8.0 µg/mL
MBC (MDR-EAEC isolates; [34]): 4.0 µg/mL
MIC (MDR-EAEC isolates; [34]): 4.0 µg/mL
MBC (MDR-EAEC isolates; [35]): 8.0 µg/mL
MIC (MDR-EAEC isolates; [35]): 8.0 µg/mL
MBC (MDR-EAEC isolates; [36]): 16.0 µg/mL
MIC (MDR-EAEC isolates; [36]): 8.0 µg/mL
MBC (MDR-EAEC isolates; [37]): 4.0 µg/mL
MIC (MDR-EAEC isolates; [37]): 2.0 µg/mL
MIC (MDR-EAEC isolates; proteinase-K, protease:AMP 1:100 (w/w), 37°C, 0.5 min, enzyme inactivated 90°C 10 min, MDR 1): 8.0 µg/mL
MIC (MDR-EAEC isolates; proteinase-K, protease:AMP 1:100 (w/w), 37°C, 0.5 min, enzyme inactivated 90°C 10 min, MDR 2): 8.0 µg/mL
MIC (MDR-EAEC isolates; proteinase-K, protease:AMP 1:100 (w/w), 37°C, 0.5 min, enzyme inactivated 90°C 10 min, MDR 3): 4.0 µg/mL
stability to protease (proteinase-K) (MDR-EAEC isolates; proteinase-K, judged by MIC and MBC): stable
MBC (MDR-EAEC isolates; trypsin 1:100 (w/w), 37°C, 0.5 min, MDR 1): 16.0 µg/mL
MBC (MDR-EAEC isolates; trypsin 1:100 (w/w), 37°C, 0.5 min, MDR 2): 16.0 µg/mL
MBC (MDR-EAEC isolates; trypsin 1:100 (w/w), 37°C, 0.5 min, MDR 3): 16.0 µg/mL
MBC (MDR-EAEC isolates; [38]): 16.0 µg/mL
MIC (MDR-EAEC isolates; [38]): 16.0 µg/mL
MBC (MDR-EAEC isolates; [39]): 16.0 µg/mL
MIC (MDR-EAEC isolates; [39]): 16.0 µg/mL
MBC (MDR-EAEC isolates; [40]): 16.0 µg/mL
MIC (MDR-EAEC isolates; [40]): 16.0 µg/mL
MBC (MDR-EAEC isolates; [41]): 16.0 µg/mL
MIC (MDR-EAEC isolates; [41]): 16.0 µg/mL
MBC (MDR-EAEC isolates; [42]): 16.0 µg/mL
MIC (MDR-EAEC isolates; [42]): 16.0 µg/mL
MBC (MDR-EAEC isolates; [43]): 16.0 µg/mL
MIC (MDR-EAEC isolates; [43]): 16.0 µg/mL
MBC (MDR-EAEC isolates; [44]): 16.0 µg/mL
MIC (MDR-EAEC isolates; [44]): 16.0 µg/mL
MBC (MDR-EAEC isolates; [45]): 16.0 µg/mL
MIC (MDR-EAEC isolates; [45]): 16.0 µg/mL
MBC (MDR-EAEC isolates; [46]): 32.0 µg/mL
MIC (MDR-EAEC isolates; [46]): 16.0 µg/mL
MBC (MDR-EAEC isolates; [47]): 16.0 µg/mL
MIC (MDR-EAEC isolates; [47]): 16.0 µg/mL
MBC (MDR-EAEC isolates; [48]): 16.0 µg/mL
MIC (MDR-EAEC isolates; [48]): 16.0 µg/mL
MBC (MDR-EAEC isolates; [49]): 32.0 µg/mL
MIC (MDR-EAEC isolates; [49]): 16.0 µg/mL
MIC (MDR-EAEC isolates; trypsin, protease:AMP 1:100 (w/w), 37°C, 0.5 min, enzyme inactivated 90°C 10 min, MDR 1): 16.0 µg/mL
MIC (MDR-EAEC isolates; trypsin, protease:AMP 1:100 (w/w), 37°C, 0.5 min, enzyme inactivated 90°C 10 min, MDR 2): 16.0 µg/mL
MIC (MDR-EAEC isolates; trypsin, protease:AMP 1:100 (w/w), 37°C, 0.5 min, enzyme inactivated 90°C 10 min, MDR 3): 16.0 µg/mL
stability to protease (trypsin) (MDR-EAEC isolates; trypsin, judged by MIC and MBC): stable
MBEC [1]: 32 µM
